In general, IC50 refers to the concentration needed to halve the response being measured.

Data on 21 compounds can be found in patent publication US8063088B2 (Hoffmann-La Roche Inc., priority 2008, dated 2011).

Assay [1] deals with T1, human LXR beta (Homo sapiens, UniProt P55055).
T1 construct: human LXR beta (aa 155 to 460); unspecified tag ('tagged versions'); made in house; host or cells: E. coli BL21 (pLysS)
T1 sequence (P55055 155-460): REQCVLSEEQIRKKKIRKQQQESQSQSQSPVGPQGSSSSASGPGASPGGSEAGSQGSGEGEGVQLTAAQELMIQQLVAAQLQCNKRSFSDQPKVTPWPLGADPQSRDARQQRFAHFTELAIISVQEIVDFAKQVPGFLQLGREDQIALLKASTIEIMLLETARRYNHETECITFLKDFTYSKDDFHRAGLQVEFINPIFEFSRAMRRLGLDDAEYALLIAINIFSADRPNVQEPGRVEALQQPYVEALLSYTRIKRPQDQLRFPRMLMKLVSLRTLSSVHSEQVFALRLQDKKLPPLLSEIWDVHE
Briefly: Radioligand binding assay (SPA), LXR beta LBD. The note with it: radioligand displacement, LXR beta-LBD on SPA beads; read-out: LXRbeta Binding IC50. The protocol: (§1) The following tests were carried out in order to determine the activity of the compounds of the present invention. Background information on the performed assays can be found in: Nichols J S et al. “Development of a scintillation proximity assay for peroxisome proliferator-activated receptor gamma ligand binding domain”, Anal Biochem. 1998, 257: 112-119.
(§2) Mammalian expression vectors were constructed to express full-length human LXR alpha and LXR beta. Bacterial expression vectors were constructed to produce tagged versions of the ligand binding domains (LBD) of human LXR alpha (aa 164 to 447) and human LXR beta (aa 155 to 460). To accomplish this, the portions of the sequences encoding the LBDs were amplified from the full-length clones by PCR and then subcloned into the plasmid vectors. Final clones were verified by DNA sequence analysis (Willy et al., Genes Dev. 1995, 9:1033-45; Song et al., Proc Natl Acad Sci USA. 1994, 91:10809-13).
(§3) Induction, expression, and purification of LBD proteins were performed in E. coli strain BL21 (pLysS) cells by standard methods (Ref: Current Protocols in Molecular Biology, Wiley Press, edited by Ausubel et al).
(§4) Radioligand Binding Assay
(§5) LXR alpha and LXR beta receptor binding were assayed in buffer consisting of 50 mM HEPES, pH 7.4, 10 mM NaCl, 5 mM MgCl2. For each 96-well reaction, 500 ng of LXRα-LBD or 700 ng of LXR beta-LBD proteins were bound to 80 μg or 40 μg SPA beads respectively, in a final volume of 50 μl by shaking. The resulting slurry was incubated for 1 h at RT and centrifuged for 2 min at 1300×g. The supernatant containing unbound protein was removed, and the semi-dry pellet containing the receptor-coated beads was re-suspended in 50 μl of buffer. Radioligand (eg. 100,000 dpm of (N-(2,2,2-trifluoroethyl)-N-[4-(2,2,2-trifluoro-1-hydroxy-1-trifluoromethylethyl)-phenyl]-benzenesulfonamide)) was added, and the reaction incubated at RT for 1 h in the presence of test compounds, and then scintillation proximity counting was performed. All binding assays were performed in 96-well plates and the amount of bound ligand was measured on a Packard TopCount using OptiPlates (Packard). Dose response curves were measured within a range of concentration from 10^−10 M to 10^−4 M.
A general note: Displacement assays read how much labelled ligand stays bound in the presence of the test substance.

Assay [2] has as its target T2, human LXR alpha (Homo sapiens, UniProt Q13133).
T2 construct: human LXR alpha (aa 164 to 447); unspecified tag ('tagged versions'); made in house; host or cells: E. coli BL21 (pLysS)
T2 sequence (Q13133 164-447): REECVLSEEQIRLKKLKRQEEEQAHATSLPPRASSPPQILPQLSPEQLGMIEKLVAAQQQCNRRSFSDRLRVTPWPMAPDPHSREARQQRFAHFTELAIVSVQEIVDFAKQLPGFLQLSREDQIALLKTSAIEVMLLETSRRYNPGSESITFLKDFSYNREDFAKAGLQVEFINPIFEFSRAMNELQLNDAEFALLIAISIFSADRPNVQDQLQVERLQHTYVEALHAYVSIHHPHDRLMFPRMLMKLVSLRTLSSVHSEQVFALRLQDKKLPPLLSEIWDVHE
As to the kind of experiment: Radioligand binding assay (SPA), LXR alpha LBD. The conditions noted are these: radioligand displacement, LXRα-LBD on SPA beads; read-out: LXRalpha Binding IC50. The protocol: as §1, §2, §3, §4, §5

`CS(=O)(=O)c1cccc(-c2cccc([C@@H]3CN(S(=O)(=O)c4ccccc4)CC[C@H]3c3ccccc3)c2)c1` (racemic) [Example 36, trans-1-Benzenesulfonyl-3-(3′-methanesulfonyl-biphenyl-3-yl)-4-phenyl-piperidine]: the IC50 worked out at 0.025 µM in assay [1] and 0.07 µM in assay [2].
For `NCc1cccc(-c2cccc([C@@H]3CN(S(=O)(=O)c4ccccc4)CC[C@H]3c3ccccc3)c2)c1` (relative stereo) [Example 37], the IC50 in assay [1] stood at 2.09 µM; in assay [2], 2.54 µM.
Taken in the same sequence, the figures for `CC(C)(C)OC(=O)N1CC[C@@H](c2ccccc2)[C@H](c2cccc(-c3cccc(S(C)(=O)=O)c3)c2)C1` (relative stereo) [Example 38, trans-3-(3′-Methanesulfonyl-biphenyl-3-yl)-4-phenyl-piperidine-1-carboxylic acid tert-butyl ester] were 0.025 µM and 0.16 µM.
Taken in the same sequence, the figures for `CS(=O)(=O)c1cccc(-c2cccc([C@@H]3CN(S(=O)(=O)c4ccccc4)CC[C@@H]3c3ccccc3)c2)c1` (relative stereo) [Example 39, cis-1-Benzenesulfonyl-3-(3′-methanesulfonyl-biphenyl-3-yl)-4-phenyl-piperidine] were 2.75 µM and 3.03 µM.
Consider `Cc1ccc(C)c(-c2cccc([C@@H]3CN(C(=O)OC(C)(C)C)CC[C@@H]3c3ccccc3)c2)c1` (relative stereo) [Example 41, cis-3-(2′,5′-Dimethyl-biphenyl-3-yl)-4-phenyl-piperidine-1-carboxylic acid tert-butyl ester], for which the results for the IC50 in assay [1] and in assay [2] were 36.8 µM and 27.4 µM, respectively.
As for `CC(C)(C)OC(=O)N1CC[C@H](c2ccccc2)[C@H](c2cccc(-c3cccc(S(C)(=O)=O)c3)c2)C1` (relative stereo) [Example 42, cis-3-(3′-Methanesulfonyl-biphenyl-3-yl)-4-phenyl-piperidine-1-carboxylic acid tert-butyl ester], the IC50 in assay [1] stood at 0.61 µM; in assay [2], 2.83 µM.
Take `CC(C)(C)OC(=O)N1CC[C@@H](c2ccccc2)[C@H](c2cccc(-c3cncc(S(C)(=O)=O)c3)c2)C1` (relative stereo) [Example 43, trans-3-[3-(5-Methanesulfonyl-pyridin-3-yl)-phenyl]-4-phenyl-piperidine-1-carboxylic acid tert-butyl ester]: the IC50 amounted to 0.755 µM in assay [1] and 3.98 µM in assay [2].
In the case of `Cc1cccc(-c2cccc([C@@H]3CN(C(=O)OC(C)(C)C)CC[C@H]3c3ccccc3)c2)c1` (relative stereo) [Example 44, trans-3-(3′-Methyl-biphenyl-3-yl)-4-phenyl-piperidine-1-carboxylic acid tert-butyl ester], the IC50 was 5.51 µM in assay [1] and 53.7 µM in assay [2].
For `CC(C)(C)OC(=O)N1C[C@H](c2cccc(-c3cccc(S(C)(=O)=O)c3)c2)[C@H](c2ccccc2)CC1=O` (relative stereo) [Example 45, Cis-5-(3′-Methanesulfonyl-biphenyl-3-yl)-2-oxo-4-phenyl-piperidine-1-carboxylic acid tert-butyl ester], the half-inhibitory concentration (IC50) was 0.021 µM in assay [1] and 0.24 µM in assay [2].
As to `CC(C)(C)OC(=O)N1C[C@H](c2cccc(-c3cncc(S(C)(=O)=O)c3)c2)[C@H](c2ccccc2)CC1=O` (relative stereo) [Example 46, cis-5-[3-(5-Methanesulfonyl-pyridin-3-yl)-phenyl]-2-oxo-4-phenyl-piperidine-1-carboxylic acid tert-butyl ester], the IC50 worked out at 0.385 µM in assay [1] and 8.21 µM in assay [2].
In the case of `Cc1ccc(C)c(-c2cccc([C@H]3CN(C(=O)OC(C)(C)C)C(=O)C[C@H]3c3ccccc3)c2)c1` (relative stereo) [Example 47, Cis-5-(2′,5′-Dimethyl-biphenyl-3-yl)-2-oxo-4-phenyl-piperidine-1-carboxylic acid tert-butyl ester], the IC50 in assay [1] was 0.22 µM; in assay [2] it was 0.185 µM.
Taken in the same sequence, the figures for `O=C(O)c1ccc(-c2ccc(C3CN(S(=O)(=O)c4ccccc4)C(=O)N3c3ccccc3)cc2)cc1` (stereo not drawn) [Example 1, 4′-(1-Benzenesulfonyl-2-oxo-3-phenyl-imidazolidin-4-yl)-biphenyl-4-carboxylic acid] were 2.88 µM and 11.6 µM.
On to `O=C(O)c1cccc(-c2ccc(C3CN(S(=O)(=O)c4ccccc4)C(=O)N3c3ccccc3)cc2)c1` (stereo not drawn) [Example 2, 4′-(1-Benzenesulfonyl-2-oxo-3-phenyl-imidazolidin-4-yl)-biphenyl-3-carboxylic acid], for which the 50% inhibitory concentration (IC50) in assay [1] came out at 8.05 µM; in assay [2] it was 7.97 µM.
In the case of `Cc1ccc(C)c(-c2ccc(C3CN(S(=O)(=O)c4ccccc4)C(=O)N3c3ccccc3)cc2)c1` (stereo not drawn) [Example 3, 1-Benzenesulfonyl-4-(2′,5′-dimethyl-biphenyl-4-yl)-3-phenyl-imidazolidin-2-one], the figures for the IC50 in assay [1] and in assay [2] were 5.25 µM and 10.2 µM, respectively.
Take `CS(=O)(=O)c1cccc(-c2ccc(C3CN(S(=O)(=O)c4ccccc4)C(=O)N3c3ccccc3)cc2)c1` (stereo not drawn) [Example 4, 1-Benzenesulfonyl-4-(3′-methanesulfonyl-biphenyl-4-yl)-3-phenyl-imidazolidin-2-one]: the IC50 in assay [1] came out at 0.28 µM; in assay [2] it was 1.68 µM.
Consider `O=C(O)c1ccc(-c2cccc(C3CN(S(=O)(=O)c4ccccc4)C(=O)N3c3ccccc3)c2)cc1` (stereo not drawn) [Example 5, 3′-(1-Benzenesulfonyl-2-oxo-3-phenyl-imidazolidin-4-yl)-biphenyl-4-carboxylic acid], for which the IC50 in assay [1] came out at 5.42 µM; in assay [2] it was 4.14 µM.
In the same order, the values of `O=C(O)c1cccc(-c2cccc(C3CN(S(=O)(=O)c4ccccc4)C(=O)N3c3ccccc3)c2)c1` (stereo not drawn) [Example 6, 3′-(1-Benzenesulfonyl-2-oxo-3-phenyl-imidazolidin-4-yl)-biphenyl-3-carboxylic acid] are 9.03 µM and 5.72 µM.
For the compound `CS(=O)(=O)c1cccc(-c2cccc(C3CN(S(=O)(=O)c4ccccc4)C(=O)N3c3ccccc3)c2)c1` (stereo not drawn) [Example 7, 1-Benzenesulfonyl-4-(3′-methanesulfonyl-biphenyl-3-yl)-3-phenyl-imidazolidin-2-one], the half-maximal inhibitory concentration (IC50) in assay [1] stood at 0.004 µM; in assay [2] it was 0.09 µM.
For `CS(=O)(=O)Nc1cccc(-c2cccc(C3CN(S(=O)(=O)c4ccccc4)C(=O)N3c3ccccc3)c2)c1` (stereo not drawn) [Example 8, N-[3′-(1-Benzenesulfonyl-2-oxo-3-phenyl-imidazolidin-4-yl)-biphenyl-3-yl]-methanesulfonamide], the IC50 came out at 0.0745 µM in assay [1] and 0.335 µM in assay [2].
In the case of `CS(=O)(=O)Nc1cccc(-c2ccc(C3CN(S(=O)(=O)c4ccccc4)C(=O)N3c3ccccc3)cc2)c1` (stereo not drawn) [Example 9, N-[4′-(1-Benzenesulfonyl-2-oxo-3-phenyl-imidazolidin-4-yl)-biphenyl-3-yl]-methanesulfonamide], the values for the IC50 in assay [1] and in assay [2] were 0.36 µM and 0.425 µM, respectively.
With `O=C(O)CCc1ccc(-c2cccc(C3CN(S(=O)(=O)c4ccccc4)C(=O)N3c3ccccc3)c2)cc1` (stereo not drawn) [Example 10, 3-[3′-(1-Benzenesulfonyl-2-oxo-3-phenyl-imidazolidin-4-yl)-biphenyl-4-yl]-propionic acid], the IC50 in assay [1] is 2.69 µM; in assay [2], 3.35 µM.
